Laboratory results taken from patent US20200384001A1, “COMPOSITION FOR PREVENTION OR TREATMENT OF NEUROINFLAMMATORY DISEASE, CONTAINING PROTEIN TYROSINE PHOSPHATASE” (KYUNGPOOK NATIONAL UNIVERSITY INDUSTRY - ACADEMIC …, priority 2015, published 2020).

Tests used:
BV2 microglia [1] = assay: LPS-induced NO production in BV2 microglial cell line (Griess reaction); assay type: cell-based; conditions: for LPS-induced NO production: BV2, Src kinase inhibitor PP2 (5 μM) or PDTC (FIG. 18)
Experimental: Since the production of NO (nitric oxide) is a strong marker of inflammatory response in microglia, the effect of PTP1B on LPS-induced NO production was investigated through the Griess reaction. The production of NO was measured using the amount of nitrite. Naive microglia or microglia overexpressing PTP1B were treated with LPS (originated from E. coli 055: B5; Sigma). FIG. 6 illustrates the result of treatment with a BV2 microglial cell line at the indicated dose of LPS. FIG. 7 illustrates the results of treating a BV2 microglial cell line with 100 ng LPS at the indicated time. 24 hours after incubation, 5 μl the cell culture media was mixed with Griess reagent with the same volume (0.1% naphthylethylenediamine dihydrochloride and 1% sulfanylamine in 5% phosphoric acid) in a 96-well microtiter plate. Absorbance was read at 540 nm and sodium nitrite was used for standard curve generation.
In addition, the level of LPS-induced NO production after BV2 treatment with Src kinase inhibitor PP2 (5 μM) or PDTC (Ammonium pyrrolidinedithiocarbamate, NFκB inhibitor) was identified to determine whether Src is associated with LPS-induced microglia activity. This is illustrated in FIG. 18.
Next, it was determined whether the PTP1B-mediated proinflammatory response was dependent on Src activity in microglia. […] NO levels were measured in the treated BV2 microglia and the results are illustrated in FIG. 19.

[2] = test system: microglia (Iba-1 positive cells); assay: Iba-1 positive activated microglia in brain of LPS-injected mice (brain inflammation model); assay type: in vivo, mouse; conditions: inhibitor intracerebrally, LPS 5 mg/kg i.p., 48 hours
Experimental: C57BL/6 mice were injected intracerebrally with vehicle (saline solution containing 0.5% DMSO and 5% propylene glycol) or the PTP inhibitor of Table 2 above (dilution in saline solution containing 5% propylene glycol). LPS (5 mg/kg) was intraperitoneally injected 30 minutes after injection. Mice were sacrificed and the brain was analyzed 48 hours after LPS injection.
The mouse model was divided into eight experimental groups; Group 1 treated with saline solution and 0.5% DMSO; Group 2 treated with LPS and 0.5% DMSO; Group 3 treated with LPS and PTP1B inhibitor; Group 4 treated with LPS and TC-PTP inhibitor; Group 5 treated with LPS and SHP2 inhibitor; Group 6 treated with LPS and MEG2 inhibitor; Group 7 treated with LPS and LYP inhibitor; and Group 8 treated with LPS and RPTPP inhibitor. The experimental design above is illustrated in FIG. 4A.
FIG. 4B illustrates the histochemical results of confirming whether the sacrificed mouse brain is morphologically changed by straining the antibody against Iba-1, a marker of microglia.
In addition, the brains were removed and sectioned, and the hippocampus, cortex and thalamus were stained with an antibody against Iba-1. The results of histochemical confirmation are illustrated in FIG. 4C. The results of graphical representation of the number of Iba-1 positive cells per mm^2 are illustrated in FIG. 4D.

HAPI cells [3] = assay: TNFα-induced NO production in HAPI rat microglial cell line; assay type: cell-based; conditions: 10 μM iPTP1B 1 hour, TNFα 100 ng/ml 24 hours (FIG. 12)
Excerpt: NO levels were identified in the stimulated cells.

BV2 microglia [4] = assay: TNFα protein ELISA in BV2 microglial culture media; assay type: cell-based; conditions: BV2, LPS, 24-hour incubation, ELISA (FIG. 15)
Experimental: In addition, the level of TNFα protein in the BV2 microglial culture media treated with LPS as described above was confirmed by ELISA. […] After 24-hour incubation, the TNFα levels in the culture media were measured using a rat monoclonal anti-mouse TNFα antibody as the capture antibody and a goat biotinylated polyclonal anti-mouse TNFα antibody as the detection antibody. The measured levels of TNFα protein results are illustrated in FIG. 15.

primary microglia = assay: LPS-induced NO production in mouse primary microglia; assay type: cell-based; conditions: 5 μM iPTP1B, LPS 50 ng/ml 24 hours (FIG. 10)
Excerpt: NO levels were confirmed in the stimulated primary microglia.

Src = assay: Phosphorylation of Src at Y527 in brain of LPS-injected inflammatory mouse model; assay type: in vivo; conditions: LPS+iPTP1B or iPTP1B injected into the brain, after 24 hours (FIG. 20)
Experimental: In addition, in vivo experiments were carried out using an inflammatory mouse model injected with LPS to identify the effect of PTP1B on phosphorylation of Src at Y527 in vivo. […] At this time, total Src and beta-actin were used as a loading control group and Lnc2 was used as a marker of neuroinflammation. The results are illustrated in FIG. 20.

BV2 microglia [5] = assay: RT-PCR of LPS-induced proinflammatory molecule mRNA in BV2 microglia; assay type: cell-based; conditions: BV2, LPS 100 ng/ml 6 hours, RT-PCR (FIGS. 13, 14)
Excerpt: The results are illustrated in FIG. 13.

HAPI cells [6] = assay: LPS-induced NO production in HAPI rat microglial cell line; assay type: cell-based; conditions: 10 μM iPTP1B 1 hour, LPS 100 ng/ml 24 hours (FIG. 11)
Excerpt: NO levels were confirmed in the stimulated rat microglial cell line, HAPI cells.

brain tissues = assay: Real-time PCR of TNFα and IL1β expression in brain tissue after LPS and iPTP1B injection; assay type: in vivo, mouse; conditions: real-time PCR 6 hours after injection of LPS (FIG. 23)
Experimental: The expression level of TNFα and IL1β genes, which are proinflammatory factors, was measured by real-time PCR 6 hours after the injection of LPS, and the results are illustrated in FIG. 23.

PTP1B = target: T1, PTP1B (Homo sapiens, UniProt P18031); conditions: statement without data; inhibitor obtained from Dr. Zhang group; cited from earlier work
T1 sequence (P18031 1-435): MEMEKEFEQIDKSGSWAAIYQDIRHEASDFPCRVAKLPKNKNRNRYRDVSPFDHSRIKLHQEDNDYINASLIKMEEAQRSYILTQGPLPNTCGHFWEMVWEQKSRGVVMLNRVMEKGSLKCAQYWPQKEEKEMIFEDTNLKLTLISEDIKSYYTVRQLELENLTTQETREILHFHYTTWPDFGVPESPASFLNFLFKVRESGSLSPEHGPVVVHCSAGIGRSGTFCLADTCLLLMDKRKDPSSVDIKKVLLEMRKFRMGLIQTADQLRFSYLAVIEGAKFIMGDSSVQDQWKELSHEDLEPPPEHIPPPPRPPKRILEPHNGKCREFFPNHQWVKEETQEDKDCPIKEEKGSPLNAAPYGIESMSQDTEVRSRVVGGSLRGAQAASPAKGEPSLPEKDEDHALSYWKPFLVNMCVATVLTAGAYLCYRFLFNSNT

**Q.** With `N.S=C(S)N1CCCC1` [PDTC, Ammonium pyrrolidinedithiocarbamate] as the compound, how does the “LPS-induced NO production” value (BV2 microglia [1]) read?
**A.** inhibited significantly

**Q.** Which “activation of LPS-induced microglia (Iba-1 positive cells) in the hippocampus” value (shortened to “activation … in the hippocampus”) [2] does the source give for “((4-((S)-3-(((S)-1-amino-3-(2-(4-hydroxy-3-methoxyphenyl)acetamido)-1-oxopropan-2-yl)amino)-5-(3-iodobenzamido)-1-oxopentan-2-yl)amino)-6-hydroxy-3-iodo-1-methyl-2-(3-(2-oxo-2-((4-thiophen-3-yl)phenyl)amino)acetamido)phenyl)-1H-indole-5-carboxlic acid [SHP2 inhibitor]” here?
**A.** decrease the activation of LPS-induced microglia

**Q.** For `CC(C)(C)n1nc(-c2ccc(Cl)cc2)c2c(N)ncnc21` [PP2], which “dose dependence of inhibition of LPS-induced NO production” value (BV2 microglia [1]; BV2, PP2 pretreatment (FIG. 18)) is on record?
**A.** dose-dependent

**Q.** What about the “LPS-induced NO production” value (BV2 microglia [1]) of the same compound?
**A.** inhibited significantly

**Q.** What about the “NO levels: effect on the anti-inflammatory effect of iPTP1B” value (BV2 microglia [1]; BV2 pretreated with PP2 or iPTP1B 1 hour, LPS 24 hours (FIG. 19)) of the same compound?
**A.** eliminated the anti-inflammatory effect of iPTP1B

**Q.** Which “activation of LPS-induced microglia (Iba-1 positive cells) in the cortex” value (“activation … in the cortex” for short) [2] does the source give for `Cn1c(-c2cccc(NC(=O)CNC(=O)c3cc(Br)cc(I)c3)c2)c(I)c2cc(C(=O)O)c(O)cc21` [RPTPβ inhibitor, 2-(3-(2-(3-bromo-5-iodobenzamido)acetamido)phenyl)-6-hydroxy-3-iodo-1-methyl-1H-indole-5-carboxylic acid] here?
**A.** decrease the activation of LPS-induced microglia

**Q.** And the “activation … in the hippocampus” value [2]?
**A.** decrease the activation of LPS-induced microglia

**Q.** For `CCc1ccc(C(=O)NCCCC[C@H](NC(=O)[C@H](Cc2ccc(C(F)(F)P(=O)(O)O)cc2)NC(=O)[C@H](Cc2ccccc2)NC(=O)CO[C@@H]2C[C@@H](C)CC[C@@H]2C(C)C)C(N)=O)cc1` [TC-PTP inhibitor], which “activation … in the cortex” value [2] is on record?
**A.** decrease the activation of LPS-induced microglia

**Q.** With “(S)-4-(((S)-1-(12-azanyl)-3-(4-(difluoro(phosphono)methyl)phenyl)-1-oxopropan-2-yl)amino)-3-((S)-3-(4-(difluoro(phosphono)methyl)phenyl)-2-pentadecanamidopropanamido)-4-oxobutanoic acid [iPTP1B]” as the compound, how does the “TNFα-induced NO level” value (HAPI cells [3]) read?
**A.** significantly decreased

**Q.** What about the “expression level of TNFα protein in the culture media” value (BV2 microglia [4]) of the same compound?
**A.** significantly low

**Q.** And the “level of LPS-induced NO” value (primary microglia)?
**A.** significantly decreased

**Q.** And the “level of LPS-induced NO” value (BV2 microglia [1]; BV2, different concentrations of iPTP1B, LPS 100 ng/ml (FIG. 9))?
**A.** dose-dependently decreased

**Q.** And the “NO production, treatment with inhibitor alone (basic level)” value (BV2 microglia [1]; BV2, iPTP1B alone without LPS)?
**A.** did not inhibit or increase NO production

**Q.** And the IC50 (BV2 microglia [1]; BV2, pretreated 1 hour, LPS 100 ng/ml, Griess method (FIG. 9), read-out: IC50 for level of LPS-induced NO)?
**A.** 10.3 µM

**Q.** What about the “phosphorylation of Src at Y527 in vivo” value (Src) of the same compound?
**A.** increased phosphorylation of Src at Y527

**Q.** What about the “LPS-induced IL1β mRNA expression” value (BV2 microglia [5]; 10 M iPTP1B) of the same compound?
**A.** significantly inhibits

**Q.** And the “LPS-induced TNFα mRNA expression” value (BV2 microglia [5]; 10 M iPTP1B)?
**A.** significantly inhibits

**Q.** What about the “LPS-induced iNOS mRNA expression” value (BV2 microglia [5]; 10 M iPTP1B) of the same compound?
**A.** significantly inhibits

**Q.** What about the “LPS-induced Cox2 mRNA expression” value (BV2 microglia [5]; iPTP1B) of the same compound?
**A.** significantly inhibits

**Q.** What about the “activation … in the cortex” value [2] of the same compound?
**A.** decrease the activation of LPS-induced microglia

**Q.** And the “activation … in the hippocampus” value [2]?
**A.** decrease the activation of LPS-induced microglia

**Q.** What about the “level of LPS-induced NO” value (HAPI cells [6]) of the same compound?
**A.** significantly decreased

**Q.** And the “expression of IL1β gene in brain” value (brain tissues)?
**A.** significantly weakened

**Q.** And the “expression of TNFα gene in brain” value (brain tissues)?
**A.** significantly weakened

**Q.** And the “specificity for PTP1B” value (PTP1B)?
**A.** highly specific to PTP1B
